In patent US10004809B2, “Precise delivery of therapeutic agents to cell mitochondria for anti-cancer therapy” (UNIVERSITY OF GEORGIA RESEARCH FOUNDATION, INC., priority 2013, dated 2018):

Assay: Solubility study
Type: physicochemical
Description: Solubility of MITO-DCA in water was checked by preparing different concentration of MITO-DCA ranging from 2 μM to 5 mM in DMSO (0.1-2.5%)-phosphate buffered saline (PBS). At all concentrations, MITO-DCA was transparent.

Solubility in water (appearance of solution) (2 μM to 5 mM in DMSO (0.1-2.5%)-phosphate buffered saline (PBS)): transparent | Solubility in an organic solvent (compared with DCA): far higher than that of DCA
Structure (SMILES): O=C(CCCCC[P+](c1ccccc1)(c1ccccc1)c1ccccc1)NC(COC(=O)C(Cl)Cl)(COC(=O)C(Cl)Cl)COC(=O)C(Cl)Cl.[Br-] [MITO-DCA]
